This passage reports IC50 results from patent US6515124B2, “Dehydroamino acids” (Hoffman-La Roche Inc., priority 2000, dated 2003).

What is called IC50 is the concentration at which inhibition is half-maximal. Lower therefore signals inhibition by little substance.

Each structure is given as a SMILES string.

Assay [1] has as its system T lymphocyte proliferation (murine spleen cells). The assay can be described thus: Mixed Lymphocyte Reaction (MLR), one-way. Particulars: Mus musculus, T-lymphocyte, light or radiation study, 72 h, C57B1/6 spleen cells with irradiated BALB/c spleen cells; tritiated thymidine incorporation, 3 days. It is filed as cell-based, mice. The text has this:
Mixed Lymphocyte Reaction (MLR)
Admixture of murine spleen cells from two different inbred strains of mice induces proliferation of T lymphocytes. The magnitude of T cell proliferation depends on the extent of disparity in the major histocompatibility antigens between the two strains. Splenic T lymphocytes from both strains proliferate due to alloantigen recognition, a process for which the interaction of ICAM-1 on antigen-presenting cells with LFA-1 on lymphocytes is necessary. The ability of antagonists to inhibit T lymphocyte proliferation following recognition of alloantigens was assessed in a one-way MLR, where cells from one strain were irradiated to permit measurement of the proliferative response of cells from the other strain. Spleen cells were washed three times in tissue culture medium (TCM; see below). Fifty microliters of a spleen cell suspension (prepared at 10×10^6 cells/ml in TCM) obtained from C57B1/6 mice were added to an equal number of lethally-irradiated (2000 rads) spleen cells obtained from BALB/c mice in a 96-well U-bottom tissue culture plate (Costar, 3799). One hundred microliters of serial dilutions of antagonists or TCM were added to the spleen cell mixture. The total volume in each well was 200 μL. TCM was RPMI1640 containing 10% heat-inactivated fetal bovine serum, […] L-glutamine, 100 Units/ml each of penicillin and streptomycin and 5×10^−5 M 2-mercaptoethanol. Dilutions of antagonists were prepared in TCM. Plates were incubated in 5% CO2 for 3 days. On the third day, 0.5 μCi of tritiated thymidine (10 μCi/mL) was added to all the wells. Cells were harvested 6 h later on a 96-well plate harvester and the amount of tritiated thymidine incorporated was assessed in a liquid scintillation counter.

Assay [2] addresses T1, LFA-1 binding to immobilized ICAM-1 (Homo sapiens, UniProt P05107+P20701).
T1 construct: made in house; host or cells: transfected 293 cells (LFA-1)
The assay can be described thus: LFA-1/ICAM-1 Protein-Protein Assay (solid-phase ELISA). Particulars: 5dICAM-Ig coated plates; membrane-bound LFA-1 from transfected 293 cells. As for the experimental part: LFA-1/ICAM-1 Protein-Protein Assay
LFA-1/ICAM-1 antagonist activity, defined as the ability to block LFA-1 binding to immobilized ICAM-1, was quantitated using a solid-phase ELISA. Typically, fusion protein consisting of the entire extracellular domain of human ICAM-1 and the Fc domain of human IgG (5dICAM-Ig) was coated onto 96-well microtiter plates (0.15 μg in 100 μL PBS) overnight at 4° C. The plates were then blocked with 150 μL of 1% BSA/1 mM MnCl2/0.14 M NaCl/20 mM HEPES, pH 7.2 for 1 h at 37° C. and washed 3 times (150 μL each) with Wash Buffer (50 mM Tris, pH 7.4/100 mM NaCl/1 mM MnCl2/0.05% Tween 20). Stock solutions (100 μM in 100% DMSO) of test compounds were diluted 50 fold with 150 μL of Binding Buffer (0.05% BSA/0.05% Tween 20/1 mM MnCl2/0.14 M NaCl/20 mM HEPES, pH 7.2) plus 10% DMSO. A series of 1:4 dilutions were performed to achieve a concentration range of 0.12 nM-2 μM. Fifty μL per well of each dilution was added to the ICAM-1 coated plates, followed by 50 μL per well of membrane-bound LFA-1 (280 ng/mL in Binding Buffer) derived from transfected 293 cells. The plates were shaken vigorously for 1 min (room temperature) and gently for 2 h (37° C.). After incubation, the plates were washed 3 times (150 μL each) with Wash Buffer. Mouse anti-human integrin β2 monoclonal antibody was added (100 μL/well, 1 μg/ml in Binding Buffer) and allowed to incubate for 1 h (37° C.) with gentle agitation. The plates were then washed 3 times with Wash Buffer. HRP-conjugated goat anti-mouse IgG (100 μL/well, 1:1500 dilution in Binding Buffer) was added to each well, followed by incubation for 1 h (37° C.) and concluded by three washes (150 μL each) with Wash Buffer. TMB solution (100 μL per well) was added for color development (10 min). The reaction was stopped by the addition of 100 μL of 1M H3PO4 to each well. The plates were then read at 450 nm.
Background: In an ELISA, binding on a coated surface is turned into a signal by an enzyme label.

T1 sequence (P20701 26-1170): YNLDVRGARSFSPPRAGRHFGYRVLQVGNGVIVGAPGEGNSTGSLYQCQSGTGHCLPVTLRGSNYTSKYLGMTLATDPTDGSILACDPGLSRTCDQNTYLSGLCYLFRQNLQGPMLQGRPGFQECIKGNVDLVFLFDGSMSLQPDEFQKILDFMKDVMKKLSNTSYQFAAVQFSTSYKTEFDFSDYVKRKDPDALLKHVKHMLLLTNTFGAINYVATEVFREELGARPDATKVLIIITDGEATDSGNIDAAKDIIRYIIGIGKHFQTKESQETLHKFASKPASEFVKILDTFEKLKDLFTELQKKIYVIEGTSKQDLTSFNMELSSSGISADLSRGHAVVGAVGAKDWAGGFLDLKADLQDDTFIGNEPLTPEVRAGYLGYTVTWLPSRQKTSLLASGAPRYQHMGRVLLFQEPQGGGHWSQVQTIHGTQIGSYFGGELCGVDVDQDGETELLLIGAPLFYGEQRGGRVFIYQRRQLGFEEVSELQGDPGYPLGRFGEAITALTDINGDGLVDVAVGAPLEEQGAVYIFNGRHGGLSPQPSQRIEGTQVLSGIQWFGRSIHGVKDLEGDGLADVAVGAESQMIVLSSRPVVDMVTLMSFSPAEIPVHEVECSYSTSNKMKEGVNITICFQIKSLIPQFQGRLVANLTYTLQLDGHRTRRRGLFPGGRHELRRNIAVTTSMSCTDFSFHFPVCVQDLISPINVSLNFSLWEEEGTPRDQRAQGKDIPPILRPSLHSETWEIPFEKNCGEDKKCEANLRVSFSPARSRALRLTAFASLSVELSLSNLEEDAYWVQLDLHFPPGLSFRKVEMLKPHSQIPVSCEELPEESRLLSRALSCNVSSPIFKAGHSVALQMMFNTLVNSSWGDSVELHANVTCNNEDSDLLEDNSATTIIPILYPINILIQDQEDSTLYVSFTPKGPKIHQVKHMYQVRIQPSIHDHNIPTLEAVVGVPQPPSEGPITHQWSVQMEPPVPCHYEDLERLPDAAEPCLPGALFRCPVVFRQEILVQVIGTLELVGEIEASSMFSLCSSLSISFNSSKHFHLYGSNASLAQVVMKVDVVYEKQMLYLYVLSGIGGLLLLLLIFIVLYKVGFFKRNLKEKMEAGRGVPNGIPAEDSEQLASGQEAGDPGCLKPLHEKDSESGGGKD
T1 sequence (P05107 23-769): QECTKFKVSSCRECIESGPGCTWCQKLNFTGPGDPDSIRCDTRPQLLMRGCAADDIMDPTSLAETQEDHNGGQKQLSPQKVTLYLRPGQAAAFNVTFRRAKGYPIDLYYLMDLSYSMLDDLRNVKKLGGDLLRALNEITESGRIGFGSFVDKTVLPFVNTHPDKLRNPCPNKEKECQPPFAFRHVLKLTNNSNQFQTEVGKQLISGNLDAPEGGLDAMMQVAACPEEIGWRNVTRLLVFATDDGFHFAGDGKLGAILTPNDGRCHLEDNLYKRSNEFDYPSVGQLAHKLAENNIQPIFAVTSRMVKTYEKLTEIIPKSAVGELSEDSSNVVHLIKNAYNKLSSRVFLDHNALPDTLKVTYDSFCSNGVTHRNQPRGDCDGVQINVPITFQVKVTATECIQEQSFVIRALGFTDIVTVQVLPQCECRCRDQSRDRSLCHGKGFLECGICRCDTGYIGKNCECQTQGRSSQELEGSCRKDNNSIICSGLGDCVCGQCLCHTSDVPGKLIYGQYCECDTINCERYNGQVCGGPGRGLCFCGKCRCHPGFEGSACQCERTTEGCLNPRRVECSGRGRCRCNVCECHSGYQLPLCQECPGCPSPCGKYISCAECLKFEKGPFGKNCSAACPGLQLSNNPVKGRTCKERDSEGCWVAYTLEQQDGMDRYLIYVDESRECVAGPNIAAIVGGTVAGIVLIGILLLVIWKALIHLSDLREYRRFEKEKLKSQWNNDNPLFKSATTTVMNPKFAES

As for `Cc1cc(C(=O)N[C@H](C)c2cccc3ccccc23)cc(C)c1C(=O)N/C(=C\c1[nH]cnc1C)C(=O)O` [Example 240], the IC50 in assay [1] stood at 3470 nM; in assay [2], 4.78 nM.

With `O=C(O)/C(=C/c1cnc2ccccc2c1)NC(=O)c1ccc(C(O)CCc2cccc(O)c2)cc1Cl` (racemic) [Example 296, rac.-(Z)-2-[[2-Chloro-4-[1-hydroxy-3-(3-hydroxyphenyl)propan-1-yl]benzoyl]amino]-3-(quinolin-3-yl)propenoic Acid], the half-maximal inhibitory concentration (IC50) stood at 2400 nM in assay [1] and 1.56 nM in assay [2].

Turning to `Cc1nc(/C=C(\NC(=O)c2ccc(C(=O)NCc3cccc(O)c3)cc2Br)C(=O)O)cs1` [Example 235, (Z)-2-[[2-Bromo-4-[[(3-hydroxybenzyl)amino]carbonyl]benzoyl]amino]-3-(2-methylthiazol-4-yl)propenoic Acid], the IC50 in assay [1] was determined as 13500 nM; in assay [2], 42.9 nM.

Regarding `O=C(O)/C(=C/c1ccc2nsnc2c1)NC(=O)c1ccc(C(=O)NCc2cccc(O)c2)cc1Cl` [Example 247], the IC50 in assay [1] is 5150 nM; in assay [2], 2 nM.

For `Cc1nnsc1/C=C(\NC(=O)c1ccc(C(=O)NCc2cccc(O)c2)cc1Br)C(=O)O` [Example 263], the IC50 in assay [1] was 2850 nM; in assay [2] it was 6.86 nM.

Consider `Cc1nc(C)c(/C=C(\NC(=O)c2ccc(C(=O)NCc3cccc(N)c3)cc2Br)C(=O)O)s1` [Example 321], for which the concentration for half-maximal inhibition (IC50) in assay [1] was 11500 nM; in assay [2], 7.52 nM.

As for `CN(C)c1ncc(/C=C(\NC(=O)c2ccc(C(=O)NCc3cccc(O)c3)cc2Br)C(=O)O)s1` [Example 260], the half-inhibitory concentration (IC50) in assay [1] is 3000 nM; in assay [2], 0.77 nM.

`O=C(O)/C(=C/c1ccccc1O)NC(=O)c1ccc(C(=O)NCc2cccc(O)c2)cc1Br` [Example 272]: the values for the IC50 in assay [1] and in assay [2] were 1500 nM and 1.4 nM, respectively.

As for `Cn1ccc2ccc(/C=C(\NC(=O)c3ccc(C(=O)NCc4cccc(O)c4)cc3Cl)C(=O)O)cc21` [Example 305], the IC50 was 7250 nM in assay [1] and 4.13 nM in assay [2].

For the molecule `O=C(O)/C(=C/c1ccc2nonc2c1)NC(=O)c1ccc(C(=O)NCc2cccc(O)c2)cc1Cl` [Example 246], the IC50 in assay [1] worked out at 7850 nM; in assay [2] it was 2.4 nM.

Consider `O=C(O)/C(=C/c1cc2c(cc1Cl)OCO2)NC(=O)c1ccc(C(=O)NCc2cccc(O)c2)cc1Cl` [Example 315], for which the half-maximal inhibitory concentration (IC50) turned out to be 2500 nM in assay [1] and 1.89 nM in assay [2].

For `O=C(O)/C(=C/c1ccc(Br)cc1)NC(=O)c1ccc(C(=O)NCc2cccc(O)c2)cc1Cl` [Example 314, (Z)-3-(4-Bromophenyl)-2-[[2-chloro-4-[[(3-hydroxybenzyl)amino]carbonyl]benzoyl]amino]propenoic Acid], the IC50 in assay [1] was determined as 6100 nM; in assay [2] it was 3.05 nM.

In the case of `O=C(O)/C(=C/c1cnc2ccccc2c1)NC(=O)c1ccc(C(=O)CCc2cccc(O)c2)cc1Cl` [Example 294, (Z)-2-[[2-Chloro-4-[3-(3-hydroxyphenyl)-1-oxopropan-1-yl]benzoyl]amino]-3-(quinolin-3-yl)propenoic Acid], the half-maximal inhibitory concentration (IC50) in assay [1] was 13000 nM; in assay [2] it was 2.38 nM.

Regarding `O=C(O)/C(=C/c1cnc2ccccc2c1)NC(=O)c1ccc(C(O)/C=C/c2cccc(O)c2)cc1Cl` (racemic) [Example 298, rac.-(Z)-2-[[2-Chloro-4-[(E)-1-hydroxy-3-(3-hydroxyphenyl)prop-2-en-1-yl]benzoyl]amino]-3-(quinolin-3-yl)propenoic Acid], the IC50 in assay [1] came to 6200 nM; in assay [2], 4.26 nM.

As to `Cc1cc(C(=O)N[C@H](C)c2cccc3ccccc23)cc(C)c1C(=O)N/C(=C\c1ncc[nH]1)C(=O)O` [Example 236], the IC50 in assay [1] turned out to be 7180 nM; in assay [2], 25.6 nM.

In the case of `O=C(O)/C(=C/c1ccncc1)NC(=O)c1ccc(C(=O)NCc2cccc(O)c2)cc1Br` [Example 280], the IC50 in assay [1] turned out to be 860 nM; in assay [2], 5 nM.

Regarding `Cc1nc(C)c(/C=C(\NC(=O)c2ccc(C(=O)NCc3cccc(O)c3)cc2Cl)C(=O)O)s1` [Example 244], the IC50 in assay [1] was 3000 nM; in assay [2] it was 1.95 nM.

Consider `Cc1cc(C(=O)N[C@H](C)c2cccc3ccccc23)cc(C)c1C(=O)N/C(=C\c1cnc2ccccc2c1)C(=O)O` [Example 241], for which the IC50 was found to be 2600 nM in assay [1] and 2.04 nM in assay [2].

With `Cc1cc(C(=O)NCc2cccc(O)c2)ccc1C(=O)N/C(=C\c1ccccc1)C(=O)O` [Example 311], the IC50 is 10500 nM in assay [1] and 11.8 nM in assay [2].

On to `O=C(O)/C(=C/c1ccccc1)NC(=O)c1ccc(C(=O)NCc2cccc(O)c2)cc1Br` [Example 269], for which the IC50 in assay [1] came out at 2200 nM; in assay [2] it was 4.31 nM.

Take `Nc1ncc(/C=C(\NC(=O)c2ccc(C(=O)NCc3cccc(O)c3)cc2Cl)C(=O)O)s1` [Example 287]: the IC50 was 1400 nM in assay [1] and 0.65 nM in assay [2].

On to `Cc1nc(C)c(/C=C(\NC(=O)c2ccc(C(O)/C=C/c3cccc(O)c3)cc2Cl)C(=O)O)s1` (racemic) [Example 299, rac.-(Z)-2-[[2-Chloro-4-[(E)-1-hydroxy-3-(3-hydroxyphenyl)prop-2-en-1-yl]benzoyl]amino]-3-(2,4-dimethylthiazol-5-yl)propenoic Acid], for which the values for the IC50 in assay [1] and in assay [2] were 10000 nM and 13.1 nM, respectively.

Consider `Cc1cc(C(=O)NCc2cc(F)cc(F)c2)cc(C)c1C(=O)N/C(=C\c1cnc2ccccc2c1)C(=O)O` [Example 253], for which the figures for the IC50 in assay [1] and in assay [2] were 8100 nM and 6.54 nM, respectively.

In the case of `O=C(O)/C(=C/c1ccc2ncsc2c1)NC(=O)c1ccc(C(=O)NCc2cccc3[nH]ccc23)cc1Br` [Example 267], the values for the IC50 in assay [1] and in assay [2] were 6380 nM and 6.37 nM, respectively.

Take `Cc1nc(C)c(/C=C(\NC(=O)c2c(C)cc(C(=O)NCc3cccc(O)c3)cc2C)C(=O)O)s1` [Example 248]: the IC50 in assay [1] was determined as 24000 nM; in assay [2], 3.96 nM.

In the case of `O=C(O)/C(=C/c1cnc(Cl)s1)NC(=O)c1ccc(C(=O)NCc2cccc(O)c2)cc1Cl` [Example 266], the IC50 in assay [1] came to 9000 nM; in assay [2], 2.7 nM.

Turning to `Cc1cc(C(=O)NCc2cccc(O)c2)cc(Cl)c1C(=O)N/C(=C\c1cnc2ccccc2c1)C(=O)O` [Example 292, (Z)-2-[[2-Chloro-4-[[(3-hydroxybenzyl)amino]carbonyl]-6-methylbenzoyl]amino]-3-(quinolin-3-yl)propenoic Acid], the IC50 in assay [1] is 925 nM; in assay [2], 0.54 nM.

For the molecule `Cc1nc(C)c(/C=C(\NC(=O)c2ccc(C(=O)CCc3cccc(O)c3)cc2Cl)C(=O)O)s1` [Example 295], the IC50 in assay [1] stood at 10000 nM; in assay [2], 3 nM.

Consider `O=C(O)/C(=C/c1ccc2ncsc2c1)NC(=O)c1ccc(C(=O)NCc2cccc(O)c2)cc1Cl` [Example 245], for which the IC50 in assay [1] is 1380 nM; in assay [2] it was 0.94 nM.

On to `O=C(O)/C(=C/c1nccs1)NC(=O)c1ccc(C(=O)NCc2cccc(O)c2)cc1Br` [Example 268, (Z)-2-[[2-Bromo-4-[[(3-hydroxybenzyl)amino]carbonyl]benzoyl]amino]-3-(thiazol-2-yl)propenoic Acid], for which the results for the IC50 in assay [1] and in assay [2] were 9000 nM and 10.6 nM, respectively.
